The supplement of paper PMC10307832

Columns and labels:
Assay in all cases: relative viability (nuclei count vs DMSO), 5 days (fraction); higher = more cells survive
AZ505 + Olaparib = compound: C1CCC(CC1)N(CCNCCC2=C3C(=C(C=C2)O)NC(=O)CO3)C(=O)CCNCCC4=CC(=C(C=C4)Cl)Cl [AZ505] + O=C(c1cc(Cc2n[nH]c(=O)c3ccccc23)ccc1F)N1CCN(C(=O)C2CC2)CC1 [Olaparib] (partner 8 µM)
Method in brief: (§1)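 Relative viability was taken as the ratio of nuclei in treated wells to nuclei in vehicle wells. Lung cancer cell lines in 1536-well plates received compounds by pin tool one day after seeding, either one drug alone or a fixed anchor-drug dose plus five library-drug doses (not always all listed) in √10 steps. Nuclei were counted on 4× images after 5 days of treatment, and values are medians of duplicate plates.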

Dactolisib + Trametinib = compound: Cn1c(=O)n(-c2ccc(C(C)(C)C#N)cc2)c2c3cc(-c4cnc5ccccc5c4)ccc3ncc21 [Dactolisib] + CC(=O)Nc1cccc(-n2c(=O)n(C3CC3)c(=O)c3c(Nc4ccc(I)cc4F)n(C)c(=O)c(C)c32)c1 [Trametinib] (partner 0.02 µM)
Method in brief: as §1

Dactolisib + OSI-027 = compound: Cn1c(=O)n(-c2ccc(C(C)(C)C#N)cc2)c2c3cc(-c4cnc5ccccc5c4)ccc3ncc21 [Dactolisib] + COc1cccc2cc(-c3nc([C@H]4CC[C@H](C(=O)O)CC4)n4ncnc(N)c34)[nH]c12 [OSI-027] (partner 0.5 µM)
Method in brief: as §1

Dactolisib + Crizotinib = compound: Cn1c(=O)n(-c2ccc(C(C)(C)C#N)cc2)c2c3cc(-c4cnc5ccccc5c4)ccc3ncc21 [Dactolisib] + C[C@@H](Oc1cc(-c2cnn(C3CCNCC3)c2)cnc1N)c1c(Cl)ccc(F)c1Cl [Crizotinib] (partner 1 µM)
Method in brief: as §1

| Cell Line | relative viability (AZ505 + Olaparib; first compound 0.253 µM) | relative viability (AZ505 + Olaparib; first compound 0.8 µM) | relative viability (AZ505 + Olaparib; first compound 2.53 µM) | relative viability (AZ505 + Olaparib; first compound 8 µM) | relative viability (Dactolisib + Trametinib; first compound 0.002 µM) | relative viability (Dactolisib + Trametinib; first compound 0.006325 µM) | relative viability (Dactolisib + Trametinib; first compound 0.02 µM) | relative viability (Dactolisib + Trametinib; first compound 0.06325 µM) | relative viability (Dactolisib + Trametinib; first compound 0.2 µM) | relative viability (Dactolisib + OSI-027; first compound 0.002 µM) | relative viability (Dactolisib + OSI-027; first compound 0.006325 µM) | relative viability (Dactolisib + OSI-027; first compound 0.02 µM) | relative viability (Dactolisib + OSI-027; first compound 0.06325 µM) | relative viability (Dactolisib + OSI-027; first compound 0.2 µM) | relative viability (AZ505 + Olaparib; first compound 0.08 µM) | relative viability (Dactolisib + Crizotinib; first compound 0.002 µM) | relative viability (Dactolisib + Crizotinib; first compound 0.006325 µM) | relative viability (Dactolisib + Crizotinib; first compound 0.02 µM) | relative viability (Dactolisib + Crizotinib; first compound 0.06325 µM) | relative viability (Dactolisib + Crizotinib; first compound 0.2 µM) |
| --- | --- | --- | --- | --- | --- | --- | --- | --- | --- | --- | --- | --- | --- | --- | --- | --- | --- | --- | --- | --- |
| NCI-H1648 | 0.794 | 0.795 | 0.754 | 1.38 | 0.467 | 0.434 | 0.647 | 0.387 | 0.24 | 0.246 | 0.286 | 0.279 | 0.235 | 0.263 |  |  |  |  |  |  |
| SK-MES-1 | 0.694 | 0.662 | 0.603 | 0.719 | 0.581 | 0.528 | 0.467 | 0.355 | 0.263 | 0.612 | 0.601 | 0.603 | 0.324 | 0.242 | 0.682 | 1.14 | 0.989 | 0.986 | 0.632 | 0.567 |
| SK-LU-1 | 0.364 | 0.349 | 0.314 | 0.326 | 0.476 | 0.657 | 0.392 | 0.34 | 0.283 | 0.277 | 0.42 | 0.362 | 0.283 | 0.226 | 0.268 | 0.912 | 0.936 | 0.681 | 0.455 | 0.352 |
| HCC-366 | 0.439 | 0.315 | 0.412 | 0.406 | 0.367 | 0.299 | 0.238 | 0.107 | 0.101 | 0.924 | 0.863 | 0.889 | 0.469 | 0.556 | 0.277 | 0.409 | 0.574 | 0.531 | 0.302 | 0.168 |
| 201T | 0.857 | 0.82 | 0.862 | 0.846 | 0.73 | 0.713 | 0.688 | 0.668 | 0.449 | 0.715 | 0.749 | 0.682 | 0.747 | 0.509 | 0.851 | 1.03 | 1.04 | 0.998 | 0.977 | 0.913 |
| HCC-827 | 0.662 | 0.628 | 0.646 | 0.711 | 0.582 | 0.563 | 0.477 | 0.313 | 0.269 | 0.8 | 0.774 | 0.787 | 0.826 | 0.759 | 0.629 | 0.978 | 0.897 | 0.992 | 0.809 | 0.506 |
| NCI-H1703 | 0.502 | 0.438 | 0.411 | 0.656 |  |  |  |  |  |  |  |  |  |  | 0.319 | 0.581 | 0.49 | 0.373 | 0.35 | 0.18 |
| Calu-6 | 0.59 | 0.525 | 0.504 | 0.608 |  |  |  |  |  |  |  |  |  |  | 0.543 | 0.891 | 0.766 | 0.702 | 0.462 | 0.325 |
| NCI-H1299 | 0.925 | 0.932 | 0.885 | 0.876 |  |  |  |  |  |  |  |  |  |  | 0.897 | 0.941 | 0.964 | 0.997 | 0.76 | 0.649 |
| ABC-1 |  | 0.841 | 0.807 | 1.2 |  |  |  |  |  | 0.494 | 0.519 | 0.569 | 0.43 | 0.349 | 0.688 | 0.632 | 0.97 | 0.908 | 0.765 | 0.396 |
| NCI-H1793 | 0.885 | 0.769 | 0.772 | 0.972 | 0.418 | 0.359 | 0.244 | 0.231 | 0.196 | 0.317 | 0.26 | 0.257 | 0.212 | 0.157 | 0.696 |  |  |  |  |  |
| SW 900 | 0.775 | 0.86 | 0.932 | 0.987 | 0.923 | 0.718 | 0.746 | 0.516 | 0.318 | 0.495 | 0.419 | 0.474 | 0.244 | 0.213 | 0.853 |  |  |  |  |  |
| NCI-H1563 |  |  |  |  |  |  |  |  |  | 0.746 | 0.772 | 0.685 | 0.648 | 0.598 |  | 0.839 | 0.789 | 0.76 | 0.62 | 0.597 |
| A549 | 0.362 | 0.358 | 0.415 | 0.296 |  |  |  |  |  |  |  |  |  |  | 0.315 | 0.855 | 0.653 | 0.569 | 0.162 | 0.0827 |
| NCI-H2342 | 0.463 | 0.491 | 0.485 | 0.488 | 0.825 | 0.72 | 0.811 | 0.538 | 0.54 | 0.684 | 0.67 | 0.572 | 0.695 | 0.518 | 0.428 |  |  |  |  |  |
| NCI-H1623 |  |  |  |  |  |  |  |  |  | 0.49 | 0.431 | 0.46 | 0.38 | 0.396 |  |  |  |  |  |  |
| NCI-H522 | 0.645 | 0.698 | 0.698 | 0.685 | 0.69 | 0.678 | 0.921 | 0.504 | 0.512 | 0.719 | 0.728 | 0.881 | 0.671 | 0.539 | 0.607 |  |  |  |  |  |
| NCI-H1395 |  | 0.456 | 0.489 | 0.392 | 0.867 | 0.889 | 0.93 | 0.637 | 0.487 | 0.666 | 0.646 | 0.709 | 0.647 | 0.521 | 0.427 |  |  |  |  |  |
| IA-LM | 0.846 | 0.807 | 0.902 | 0.889 |  |  |  |  |  |  |  |  |  |  | 0.78 | 0.903 | 0.561 | 0.539 | 0.162 | 0.0865 |
| EBC-1 | 0.693 | 0.673 | 0.69 | 0.642 |  |  |  |  |  |  |  |  |  |  | 0.644 | 0.226 | 0.181 | 0.208 | 0.198 | 0.2 |
